GI50 and TGI data for eight compounds are collected here from PubChem BioAssay (NCI).

Test systems include 786-0 renal; COLO 205 colon; HOP-62 NSCLC; LOX IMVI melanoma; M14 melanoma; OVCAR-3 ovarian; RXF 393 renal; SNB-19 CNS; U251 CNS.
Holding throughout (test): NCI anticancer screen, dose series, 48 h

“And” between values parts separate entries of the source, which are not always exact repeats. Equal entries are not always repeated.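 Results reflect a 48-hour exposure of cells in 96-well plates to compound at five concentrations. Abbreviation: GI50, concentration required for 50% inhibition of growth. At the TGI there is no net growth.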 Where only a bound is given, the exact number is not on record here.

As for `O=C(NCCN1CCNCC1)c1ccc(Nc2nc3ccccc3c3occc23)cc1`, the GI50 was 8.06 µM with 786-0 renal; 10.6 µM in the assay with COLO 205 colon; 10.3 µM in the assay on HOP-62 NSCLC; 15.2 µM with LOX IMVI melanoma; 1.94 µM in the assay with M14 melanoma; 14.5 µM in the assay on OVCAR-3 ovarian. Moreover, the GI50 with RXF 393 renal was 6.92 µM; with SNB-19 CNS, 15.5 µM; with U251 CNS it was 17.9 µM. Also, the TGI was 21.6 µM in the assay with 786-0 renal; greater than 100 µM in the assay on COLO 205 colon; 22.4 µM in the assay on HOP-62 NSCLC; 33.1 µM with LOX IMVI melanoma; 3.98 µM with M14 melanoma; 80.1 µM in the assay with OVCAR-3 ovarian. The TGI in the assay on RXF 393 renal was 26.4 µM; in the assay with SNB-19 CNS, greater than 100 µM; in the assay on U251 CNS, 33.1 µM.
For `OCc1ccc(N2CCOCC2)cc1Cl`, the GI50 is greater than 100 µM in the assay on 786-0 renal; 25 µM in the assay on COLO 205 colon; greater than 100 µM with HOP-62 NSCLC; greater than 100 µM in the assay with LOX IMVI melanoma; greater than 100 µM in the assay on M14 melanoma; 35.2 µM with OVCAR-3 ovarian. Further, the results for the GI50 with RXF 393 renal, in the assay on SNB-19 CNS and in the assay with U251 CNS were greater than 79.1 µM, greater than 100 µM and greater than 72.2 µM, respectively. The TGI in the assay on 786-0 renal was greater than 100 µM; in the assay on COLO 205 colon it was greater than 68.1 µM; in the assay with HOP-62 NSCLC, greater than 100 µM; with LOX IMVI melanoma it was greater than 100 µM; in the assay on M14 melanoma, greater than 100 µM; in the assay on OVCAR-3 ovarian it was greater than 92 µM. The TGI in the assay with RXF 393 renal, in the assay on SNB-19 CNS and with U251 CNS was greater than 100 µM in each case.
Regarding `COc1ccc(F)c(F)c1C(=O)c1cnc(NC2CCN(S(C)(=O)=O)CC2)nc1N`, the GI50 is 0.666 µM and 0.388 µM in the assay with 786-0 renal; 0.253 µM and 0.15 µM in the assay with COLO 205 colon; 0.959 µM and 0.45 µM with HOP-62 NSCLC; 0.848 µM and 0.291 µM in the assay with LOX IMVI melanoma; 1.48 µM and 0.917 µM in the assay with M14 melanoma; 0.961 µM and 0.588 µM in the assay on OVCAR-3 ovarian. Besides, the GI50 in the assay on RXF 393 renal was 0.286 µM and 0.149 µM; in the assay on SNB-19 CNS it was 0.576 µM and 0.445 µM; with U251 CNS it was 0.484 µM and 0.371 µM. In addition, the TGI in the assay on 786-0 renal is greater than 27 µM; with COLO 205 colon, 1.69 µM and 1.48 µM; with HOP-62 NSCLC, > 23.4 µM and 7.93 µM; with LOX IMVI melanoma it was greater than 100 µM; in the assay with M14 melanoma, 9.66 µM and > 10 µM; in the assay with OVCAR-3 ovarian, 5.26 µM and 6.56 µM. Further, the TGI in the assay with RXF 393 renal is 1.48 µM and 0.423 µM; in the assay on SNB-19 CNS, greater than 100 µM; in the assay with U251 CNS, greater than 100 µM.
On to `CC1c2ccccc2N=C2SC(=S)N3CCN=C3N21` (centres undefined), for which the GI50 with 786-0 renal, with COLO 205 colon, with HOP-62 NSCLC, in the assay on LOX IMVI melanoma, in the assay on M14 melanoma and in the assay on OVCAR-3 ovarian was greater than 100 µM each time. Also, the GI50 with RXF 393 renal, in the assay with SNB-19 CNS and in the assay on U251 CNS was greater than 100 µM in each case. Also, the TGI with 786-0 renal, with COLO 205 colon, in the assay with HOP-62 NSCLC, with LOX IMVI melanoma, in the assay on M14 melanoma and in the assay with OVCAR-3 ovarian was greater than 100 µM each time. The TGI in the assay with RXF 393 renal, in the assay with SNB-19 CNS and with U251 CNS was greater than 100 µM throughout.
For the compound `O=[N+]([O-])c1ccc(-c2cc3c(Nc4ccc(Cl)c(C(F)(F)F)c4)ncnc3s2)cc1`, the GI50 was 1.1 µM in the assay on 786-0 renal; 1.79 µM with COLO 205 colon; 3.13 µM with HOP-62 NSCLC; 1.62 µM in the assay with LOX IMVI melanoma; 2.86 µM in the assay on M14 melanoma; 0.605 µM with OVCAR-3 ovarian. Further, the figures for the GI50 in the assay on RXF 393 renal, with SNB-19 CNS and in the assay with U251 CNS were 1.79 µM, 1.29 µM and 1.38 µM, respectively. The TGI in the assay on 786-0 renal is greater than 20.6 µM; with COLO 205 colon, 3.35 µM; in the assay on HOP-62 NSCLC it was greater than 100 µM; in the assay with LOX IMVI melanoma, greater than 100 µM; in the assay on M14 melanoma, greater than 100 µM; in the assay with OVCAR-3 ovarian, greater than 100 µM. Besides, the TGI in the assay with RXF 393 renal was 6.19 µM; in the assay with SNB-19 CNS, greater than 86.4 µM; with U251 CNS, greater than 87.8 µM.
As to `[2H]c1nc(=Nc2cc(NC(=O)C=C)c(N(C)CCN(C)C)cc2OC)[nH]c(-c2cn(C([2H])([2H])[2H])c3ccccc23)c1[2H]`, the GI50 with 786-0 renal is 1.34 µM; with COLO 205 colon, 1.62 µM; in the assay with HOP-62 NSCLC, 4.25 µM; with LOX IMVI melanoma, 1.65 µM; in the assay on M14 melanoma it was 1.67 µM; with OVCAR-3 ovarian it was 1.18 µM. Moreover, the GI50 is 1.4 µM with RXF 393 renal, 1.4 µM in the assay with SNB-19 CNS and 1.76 µM with U251 CNS. Besides, the TGI in the assay on 786-0 renal was found to be 2.68 µM; in the assay with COLO 205 colon, 3.06 µM; with HOP-62 NSCLC, 20.7 µM; in the assay with LOX IMVI melanoma it was 3.17 µM; in the assay on M14 melanoma, 3.23 µM; with OVCAR-3 ovarian, 2.83 µM. Moreover, the TGI was 3.2 µM in the assay with RXF 393 renal, 3.05 µM in the assay on SNB-19 CNS and 3.6 µM in the assay on U251 CNS.
Take `O=C(c1cccs1)C1NO[N+]([O-])=C1c1cccs1` (centres undefined): the GI50 is 2.01 µM with 786-0 renal; 1.8 µM with COLO 205 colon; 4.77 µM with HOP-62 NSCLC; 2.4 µM in the assay on LOX IMVI melanoma; 2.71 µM with M14 melanoma; 1.79 µM in the assay on OVCAR-3 ovarian. In addition, the GI50 in the assay with RXF 393 renal is 1.68 µM; with SNB-19 CNS it was 29.9 µM; with U251 CNS it was 5.6 µM. In addition, the TGI stood at 3.88 µM with 786-0 renal; 4.51 µM in the assay with COLO 205 colon; 11.4 µM with HOP-62 NSCLC; 6.5 µM in the assay on LOX IMVI melanoma; 7.87 µM with M14 melanoma; 3.2 µM in the assay with OVCAR-3 ovarian. The TGI was 3.42 µM in the assay with RXF 393 renal, greater than 79.2 µM in the assay with SNB-19 CNS and 12 µM with U251 CNS.
As for `CCn1c(-c2nonc2N)nc2ccncc21`, the GI50 in the assay with 786-0 renal, in the assay on COLO 205 colon, with HOP-62 NSCLC, in the assay with LOX IMVI melanoma, in the assay with M14 melanoma and in the assay with OVCAR-3 ovarian was greater than 25 µM each time. Besides, the GI50 in the assay on RXF 393 renal, in the assay on SNB-19 CNS and in the assay with U251 CNS was greater than 25 µM each time. In addition, the TGI with 786-0 renal, in the assay on COLO 205 colon, in the assay with HOP-62 NSCLC, with LOX IMVI melanoma, in the assay on M14 melanoma and in the assay on OVCAR-3 ovarian was greater than 25 µM in each case. The TGI in the assay on RXF 393 renal, in the assay with SNB-19 CNS and with U251 CNS was greater than 25 µM in each case.
